pKd: −log10 of the molar value.
Key:
[1] = Metabolic stability assay in liver microsomes (MLM); type: in vitro ADME, mouse; settings: for half-life at 2 µM: mouse, liver microsomes
Description: (§1) Metabolic stability assay in liver microsomes. The stabilities of CDD-2110, CDD-2211, CDD-2212, CDD-2807, and CDD-3348 in liver microsomes with/without Uridine Diphosphate Glucuronic Acid (UDP-GA, a cofactor of UDP-glucuronosyltransferases) were performed and half-life was calculated as previously reported (36). Briefly, each CDD compound (2.0 μM) was incubated in the mouse or human liver microsomes (0.5 mg protein/mL) at 37°C in 1× PBS fortified with NADPH (1.0 mM) and with/without UDP-GA (2.5 mM). Alamethicin (25 µg/mL) as a pore forming agent was used for the glucuronidation (Table S2A). The samples were collected at specific time-points 0, 30, and 60 min in duplicate. The reactions were terminated by adding equivalent volume of ice-cold methanol (CH3OH) and vortexed. After centrifugation at 15000 g for 10 min, 3.0 μL of the supernatant was analyzed by Thermo TSQ Quantis MS coupled with a Thermo Vanquish UHPLC (San Jose, CA) equipped with a Luna C18 column (1 mm × 50 mm, 1.6 µm, Phenomenex, Torrance, CA). The column temperature was maintained at 40°C. CDD-2807 was monitored under the selected reaction monitoring (SRM) mode coupled with a positive electrospray ionization (ESI) source. The SRM ion pairs were 447→321 for CDD-2807.

male mice [2] = assay: Histological analysis of testis and epididymis; type: in vivo
Source text: fig. S24. Histological analysis of testis and epididymis segments (caput & corpus) from control and CDD-2807-treated male mice from protocol 1. Bouin’s fixed, 4 µm-cross sections of the testis (A) and horizontal sections of the epididymis (B) were stained with PAS-hematoxylin.
All 12 stages of spermatogenesis are represented in both control and CDD-2807-treated mice and show normal tissue morphology and acrosome development. Epididymis from the control and CDD-2807-treated mice were similar histologically. Scale bars are 60 µm.
(1 picture or pasted object on this page, not shown here) […]
fig. S25. Histological analysis of testis and epididymis segments (caput & corpus) from control and CDD-2807-treated male mice from protocol 2. Bouin’s fixed, 4 µm-cross sections of the testis (A) and longitudinal sections of the epididymis (B) were stained with PAS-hematoxylin. All 12 stages of spermatogenesis are represented in both control and CDD-2807-treated mice, although it was difficult to find all stages in the CDD-2807-treated mice. Epididymis from the control and CDD-2807-treated mice were very different histologically, control mice had normal sperm cells, while CDD-2807 mice had occasional round spermatids present in the epididymis. Scale bars are 60 µm.

CLK4 = CLK4 (Homo sapiens, UniProt Q9HAZ1); assay: LanthaScreen binding assay (ThermoFisher SelectScreen); set-up: purchased SelectScreen Services (ThermoFisher)
Sequence of CLK4 (Q9HAZ1 whole entry): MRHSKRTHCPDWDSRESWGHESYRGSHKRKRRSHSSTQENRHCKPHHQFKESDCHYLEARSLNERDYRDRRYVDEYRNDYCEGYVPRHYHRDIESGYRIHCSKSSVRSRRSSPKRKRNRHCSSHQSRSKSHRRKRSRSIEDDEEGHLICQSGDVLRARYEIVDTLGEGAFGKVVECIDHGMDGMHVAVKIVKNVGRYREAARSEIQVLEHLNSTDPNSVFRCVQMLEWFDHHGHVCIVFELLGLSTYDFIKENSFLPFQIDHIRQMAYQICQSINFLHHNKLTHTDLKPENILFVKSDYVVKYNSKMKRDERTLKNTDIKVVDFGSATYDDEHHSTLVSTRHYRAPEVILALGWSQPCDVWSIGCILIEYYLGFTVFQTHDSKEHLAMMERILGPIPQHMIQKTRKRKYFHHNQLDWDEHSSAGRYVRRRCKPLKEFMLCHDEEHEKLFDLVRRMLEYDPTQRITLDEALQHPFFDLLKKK
Source text: (§2) In vitro biochemical assays. Several small molecule assays were outsourced to SelectScreen Services (ThermoFisher) for STK33 and for off-target kinases (data sets are available on demand).
(§3) These assays are LanthaScreen (binding assay) and Z’-LYTE (activity assay). Dose-responses were done with at least 5 different concentrations in duplicates, and parameters were optimized by calculations described below and provided with standard errors.
(§4) Calculation of Kd values for kinase inhibitors that bind to the ATP pocket of a kinase from LanthaScreen binding data. DynaFit (71) was used to fit complex equilibria where a tracer is displaced by a dilution series of a kinase inhibitor. This method relies on the concentration of inhibitor, as well as the concentration of kinase and tracer, and Kd of the tracer. The latter three parameters are tabulated by ThermoFisher for each kinase in the LanthaScreen assay panel. […]

male mice [3] = assay: Testis size of treated mice; type: in vivo
[4] = Metabolic stability assay in liver microsomes (HLM); type: in vitro ADME, human
Description: as §1

STK33 = STK33 (Homo sapiens, UniProt Q9BYT3); assay: LanthaScreen binding assay (ThermoFisher SelectScreen); set-up: purchased SelectScreen Services (ThermoFisher)
Sequence of STK33 (Q9BYT3 whole entry): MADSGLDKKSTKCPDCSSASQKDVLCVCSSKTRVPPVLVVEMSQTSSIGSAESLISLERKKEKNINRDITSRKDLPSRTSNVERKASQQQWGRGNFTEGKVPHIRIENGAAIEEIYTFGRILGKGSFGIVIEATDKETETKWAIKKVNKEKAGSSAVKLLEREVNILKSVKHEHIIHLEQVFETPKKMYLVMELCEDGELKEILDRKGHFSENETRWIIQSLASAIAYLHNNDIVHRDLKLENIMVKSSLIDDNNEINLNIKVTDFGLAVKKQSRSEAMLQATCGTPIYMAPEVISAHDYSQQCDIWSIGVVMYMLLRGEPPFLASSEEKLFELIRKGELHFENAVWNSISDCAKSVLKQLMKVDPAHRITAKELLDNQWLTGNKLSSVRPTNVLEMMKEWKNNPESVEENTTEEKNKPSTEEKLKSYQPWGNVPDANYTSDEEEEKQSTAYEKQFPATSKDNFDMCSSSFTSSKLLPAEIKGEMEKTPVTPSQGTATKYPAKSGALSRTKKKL
Source text: as §2, §3, §4
Since Kd and Ki values are defined the same way, in other words, Kd = [E] [I] / [EI] = Ki, Kd and Ki values can be compared. […]

male mice [5] = assay: Computer assisted sperm analysis (CASA) of cauda epididymis sperm; type: in vivo
Source text: To further understand the cause of the contraceptive effect of CDD-2807, we analyzed sperm from the cauda epididymis of each mouse using computer assisted sperm analysis (CASA). Although sperm counts were lower in the controls in protocol 1 mice versus CDD-2807–treated mice (fig. S23C), sperm motility (fig. S23D), progressive sperm (fig. S23E), and hyperactivated sperm (fig. S23F) were reduced in the CDD-2807–treated mice. In protocol 2, sperm counts (Fig. 4D), sperm motility (Fig. 4E), progressive sperm (Fig. 4F), and hyperactivated sperm (Fig. 4G) were reduced in the CDD-2807-treated mice versus control mice. […] Thus, low dose (CDD-2807 at 15 mg kg^−1 twice per day for 45 days) or reduced duration (CDD-2807 at 50 mg kg^−1 day^−1 for 7 days) appears to cause a functional defect in motility, whereas high dose (CDD-2807 at 50 mg kg^−1 day^−1 for 63 days) causes both functional and morphologic defects, consistent with the Stk33 knockout and likely a direct role of STK33 in phosphorylation of fibrous sheath proteins A-kinase anchoring protein 3 (AKAP3) and AKAP4 and/or other STK33 targets ([48]).

[6] = 50 mg/kg/day for 7 days (Protocol 3)
[7] = protocol 2 at 63 days, vs control

In the case of O=C(c1ccc2[nH]nc(C#Cc3ccccc3-c3ccccc3)c2c1)N1CC2(CCCNC2)C1 [CDD-2807], the “Metabolic stability MLM, t1/2” value ([1]; 2.0 µM, 0.5 mg protein/mL, NADPH, data >60 min is an extrapolated estimate) was > 60 min, the “Metabolic stability in MLM” value ([1]; Phase I metabolism) was ~ 1 hour and the “Metabolic stability in MLM” value ([1]; Phases I and II metabolism) was ~ 50 minutes. For the same compound, the half-life at 2 µM ([1]; 2.0 µM, 0.5 mg protein/mL, NADPH, data >60 min is an extrapolated estimate, read-out: Metabolic stability MLM, t1/2) was 71 min, the half-life at 2 µM ([1]; NADPH with UDP-GA (2.5 mM), alamethicin, read-out: MLM, t1/2, liver microsomes with glucuronidation) was 50 min and the “histology of testes and epididymis” value (male mice [2]; protocol 1) was “no detectable defects”. The histology of epididymis (male mice [2]; protocol 2) was “round spermatids in the epididymis”, the pKd (CLK4) was 9.05 and the testis size (male mice [3]; [6]) was “did not alter”. The testis size (male mice [3]; protocol 1 at day 45) was “normal”, the testis size (male mice [3]; protocol 2 at 63 days) was 87.13 ± 5.87 mg and the “Metabolic stability in HLM” value ([4]; Phase I metabolism) was ~ 10 hours. For the same compound, the “Metabolic stability in HLM” value ([4]; Phases I and II metabolism) was ~ 6 hours, the half-life at 2 µM ([4]; human, liver microsomes, NADPH with UDP-GA (2.5 mM), alamethicin, read-out: HLM, t1/2, liver microsomes with glucuronidation) was 388 min and the pKd (STK33) was 10.70. For the same compound, the progressive sperm (male mice [5]; [6]) was “statistically significant reductions”, the sperm counts (male mice [5]; [6]) was “did not alter” and the sperm hyperactivation (male mice [5]; [6]) was “statistically significant reductions”. For the same compound, the sperm motility (male mice [5]; [6]) was “statistically significant reductions”, the hyperactivated sperm (male mice [5]; protocol 1, day 45, vs control) was “reduced” and the progressive sperm (male mice [5]; protocol 1, day 45, vs control) was “reduced”. The sperm motility (male mice [5]; protocol 1, day 45, vs control) was “reduced”, the hyperactivated sperm (male mice [5]; [7]) was “significant decrease” and the progressive sperm (male mice [5]; [7]) was “significant decrease”. For the same compound, the sperm counts (male mice [5]; [7]) was “significant decrease” and the sperm motility (male mice [5]; [7]) was “significant decrease”.
